Test results as given in patent US5753695A, “Flavilium compounds and method of using” (Biogal Gyogyszergyar RT, priority 1992, dated 1998).

How the values were obtained:
HIV-1 IIIB = assay: HIV reverse transcriptase activity / HIV replication in infected MT-4 and H9 human lymphocyte cell-lines; assay type: cell-based, HIV-1 strain IIIB
Description: The HIV reverse transcriptase inhibiting activity of compounds of formula (I) of the invention was measured by the method of Hoffman, A. D. et al. described in Virology, Vol. 147, pp. 326-335, 1985.
The measurement results are shown for the model compound 5,7,4'-trihydroxy-4,3',5'-trimethyl-flavilium chloride (hereinafter referred to as "BIOGAL 6") and prepared as described in Example 1 below.
The active agents were tested on MT-4 and H9 human lymphocyte cell-lines infected with the strain HIV-1 IIIB. The cells were infected with 20 TCID50 of the HIV-1 virus.
[…] The active agent was first added to the culture 4 hours before the infection, and then 24, and 48 hours after infection. HIV infected, untreated MT-4 and H9 cells were used, as well as uninfected, untreated cells as a control. The AZT-control was zidovudine (ZDU) sold by Burroughs Wellcome Company under the name Retrovir.
Reverse transcriptase inhibiting activity was determined on 500 μl aliquots from supernatant of the culture and their virus concentration was measured. The results are given in cpm/cm^3 indicating ^3 H-TTP.

CFP/SPF laboratory mice = assay: Acute toxicity, CFP/SPF laboratory mice; assay type: in vivo; details: oral doses even as high as 2,000 μg/kg
Description: (§1) Acute toxicity examinations on CFP/SPF laboratory mice strains and WISTAR Charles River/SPF laboratory rat strains, orally and intravenously have shown that BIOGAL-6 is nontoxic at oral doses even as high as […].

[1] = test system: WISTAR Charles River/SPF laboratory rat strains; assay: Acute toxicity, WISTAR Charles River/SPF laboratory rats; assay type: in vivo; details: oral doses even as high as 2,000 μg/kg
Description: as §1

Cc1cn([C@H]2C[C@H](N=[N+]=[N-])[C@@H](CO)O2)c(=O)[nH]c1=O [AZT, azidothymidine, reference compound]
RT activity (HIV-1 IIIB; Table 1, 5 μg/cm^3, 7 day): 2.195 cpm/cm^3
RT activity (HIV-1 IIIB; Table 1, 5 μg/cm^3, 10 day): 2.127 cpm/cm^3
RT activity (HIV-1 IIIB; Table 1, 5 μg/cm^3, 18 day): 38.797 cpm/cm^3
RT activity (HIV-1 IIIB; Table 1, 20 μg/cm^3, 7 day): 2.386 cpm/cm^3
RT activity (HIV-1 IIIB; Table 1, 20 μg/cm^3, 10 day): 2.224 cpm/cm^3
RT activity (HIV-1 IIIB; Table 1, 20 μg/cm^3, 18 day): 1.921 cpm/cm^3
RT activity (HIV-1 IIIB; Table 1, 100 μg/cm^3, 7 day): 2.220 cpm/cm^3
RT activity (HIV-1 IIIB; Table 1, 100 μg/cm^3, 10 day): 2.181 cpm/cm^3
RT activity (HIV-1 IIIB; Table 1, 100 μg/cm^3, 18 day): 1.838 cpm/cm^3
RT activity (HIV-1 IIIB; Table 2, 0.1 μg/cm^3, 7 day): 7.392 cpm/cm^3
RT activity (HIV-1 IIIB; Table 2, 0.1 μg/cm^3, 10 day): 125.627 cpm/cm^3
RT activity (HIV-1 IIIB; Table 2, 0.1 μg/cm^3, 18 day): 62.817 cpm/cm^3
RT activity (HIV-1 IIIB; Table 2, 0.5 μg/cm^3, 7 day): 6.148 cpm/cm^3
RT activity (HIV-1 IIIB; Table 2, 0.5 μg/cm^3, 10 day): 75.051 cpm/cm^3
RT activity (HIV-1 IIIB; Table 2, 0.5 μg/cm^3, 18 day): 84.047 cpm/cm^3
RT activity (HIV-1 IIIB; Table 2, 1.0 μg/cm^3, 7 day): 3.989 cpm/cm^3
RT activity (HIV-1 IIIB; Table 2, 1.0 μg/cm^3, 10 day): 15.115 cpm/cm^3
RT activity (HIV-1 IIIB; Table 2, 1.0 μg/cm^3, 18 day): 75.539 cpm/cm^3
RT activity (HIV-1 IIIB; Table 2, 2.5 μg/cm^3, 7 day): 3.231 cpm/cm^3
RT activity (HIV-1 IIIB; Table 2, 2.5 μg/cm^3, 10 day): 9.083 cpm/cm^3
RT activity (HIV-1 IIIB; Table 2, 2.5 μg/cm^3, 18 day): 116.001 cpm/cm^3
RT activity (HIV-1 IIIB; Table 2, 5.0 μg/cm^3, 7 day): 1.724 cpm/cm^3
RT activity (HIV-1 IIIB; Table 2, 5.0 μg/cm^3, 10 day): 3.571 cpm/cm^3
RT activity (HIV-1 IIIB; Table 2, 5.0 μg/cm^3, 18 day): 51.735 cpm/cm^3

Cc1cc(-c2cc(C)c3c(O)cc(O)cc3[o+]2)cc(C)c1O [BIOGAL 6, 5,7,4'-trihydroxy-4,3',5'-trimethyl-flavilium chloride]
effect on HIV (in words) (HIV-1 IIIB; 1.0 μg/cm^3 and below): completely ineffective
effect on HIV replication (in words) (HIV-1 IIIB; 5 μg/cm^3): completely blocked the HIV replication
duration of effect compared to AZT (in words), FIG. 1 (HIV-1 IIIB; 5 μg/cm^3, FIG. 1): long lasting when compared to AZT
effect on HIV production (in words), FIG. 1 (HIV-1 IIIB; 5 μg/cm^3, FIG. 1): completely blocked HIV production
duration of effect on HIV (in words) (HIV-1 IIIB; 2.5 and 5 μg/cm^3): long-lasting
RT activity (HIV-1 IIIB; Table 1, 5 μg/cm^3, 7 day): 1.795 cpm/cm^3
RT activity (HIV-1 IIIB; Table 1, 5 μg/cm^3, 10 day): 1.228 cpm/cm^3
RT activity (HIV-1 IIIB; Table 1, 5 μg/cm^3, 18 day): 1.198 cpm/cm^3
RT activity (HIV-1 IIIB; Table 1, 20 μg/cm^3, 7 day): 1.748 cpm/cm^3
RT activity (HIV-1 IIIB; Table 1, 20 μg/cm^3, 10 day): 1.626 cpm/cm^3
RT activity (HIV-1 IIIB; Table 1, 20 μg/cm^3, 18 day): 1.300 cpm/cm^3
RT activity (HIV-1 IIIB; Table 1, 100 μg/cm^3, 7 day): 1.666 cpm/cm^3
RT activity (HIV-1 IIIB; Table 1, 100 μg/cm^3, 10 day): 1.300 cpm/cm^3
RT activity (HIV-1 IIIB; Table 1, 100 μg/cm^3, 18 day): 1.359 cpm/cm^3
RT activity (HIV-1 IIIB; Table 2, 0.1 μg/cm^3, 7 day): 111.035 cpm/cm^3
RT activity (HIV-1 IIIB; Table 2, 0.1 μg/cm^3, 10 day): 99.813 cpm/cm^3
RT activity (HIV-1 IIIB; Table 2, 0.1 μg/cm^3, 18 day): 45.535 cpm/cm^3
RT activity (HIV-1 IIIB; Table 2, 0.5 μg/cm^3, 7 day): 108.846 cpm/cm^3
RT activity (HIV-1 IIIB; Table 2, 0.5 μg/cm^3, 10 day): 98.150 cpm/cm^3
RT activity (HIV-1 IIIB; Table 2, 0.5 μg/cm^3, 18 day): 43.804 cpm/cm^3
RT activity (HIV-1 IIIB; Table 2, 1.0 μg/cm^3, 7 day): 96.638 cpm/cm^3
RT activity (HIV-1 IIIB; Table 2, 1.0 μg/cm^3, 10 day): 75.917 cpm/cm^3
RT activity (HIV-1 IIIB; Table 2, 1.0 μg/cm^3, 18 day): 38.595 cpm/cm^3
RT activity (HIV-1 IIIB; Table 2, 2.5 μg/cm^3, 7 day): 6.231 cpm/cm^3
RT activity (HIV-1 IIIB; Table 2, 2.5 μg/cm^3, 10 day): 8.938 cpm/cm^3
RT activity (HIV-1 IIIB; Table 2, 2.5 μg/cm^3, 18 day): 6.803 cpm/cm^3
RT activity (HIV-1 IIIB; Table 2, 5.0 μg/cm^3, 7 day): 1.478 cpm/cm^3
RT activity (HIV-1 IIIB; Table 2, 5.0 μg/cm^3, 10 day): 1.019 cpm/cm^3
RT activity (HIV-1 IIIB; Table 2, 5.0 μg/cm^3, 18 day): 1.226 cpm/cm^3
acute toxicity (CFP/SPF laboratory mice): nontoxic
acute toxicity [1]: nontoxic
